The text below walks through data of article PMC5911580, “YL143, a novel mutant selective irreversible EGFR inhibitor, overcomes EGFR^L858R, T790M‐mutant resistance in vitro and in vivo” (Cancer Medicine, 2018).

Assay [1] addresses T1, EGFR^WT (Homo sapiens, UniProt P00533).
T1 construct: purchased Invitrogen
Put plainly: FRET-based Z'-Lyte kinase assay, EGFR WT. The format is biochemical. Conditions: AV ± SD; 1.5 h incubation. The procedure: (§1) The kinase activity assay was performed and optimized according to the instructions of Z’‐LYTE™ kinase assay kits from the manufacturer (PV4879, Life, America). In our experiments, 10 concentration gradients from 0.01 nmol/L to 1.0 μmol/L were used for all the compounds.

Assay [2] concerns the target IR (Homo sapiens, UniProt P06213). Put plainly: FRET-based Z'-Lyte kinase assay, IR. The following applies: AV ± SD; 1.5 h incubation. Format: biochemical. Here is the method: as §1
In assay [3] the test system is H1975 (EGFR^L858R/T790M) cells. Put plainly: CCK-8 cell growth assay, H1975. Format: cell-based. The following applies: Homo sapiens, NCI-H1975; CCK-8, 72 h; AV ± SD; read-out: antiproliferative IC50 H1975. Here is the method:
Cells were seeded into 96‐well plates at a density of 1500~3000/well in complete medium overnight. Then, cells were treated with various concentrations (0.01~1000 nmol/L) of YL143 for additional 3 days. Viable cell numbers were determined by Cell Counting Kit 8 (CCK8, CK04, Dojindo Laboratories, Japan). Each assay consisted of three replicate wells and repeated at least three times. […] Each IC50 value was expressed as mean ± SD.
(Formazan colour is commonly taken as a measure of viable cells.)

Assay [4] concerns the target AKT1 (Homo sapiens, UniProt P31749). The experiment in a line: Z'-Lyte kinase panel, AKT1. The format is biochemical. The following applies: 1.5 hrs incubation. Here is the method:
(§2) Kinase activity assays were performed using the FRET-based Z′-Lyte assay according to the manufacturer’s instructions. The compounds were incubated with the kinase reaction mixture for 1.5 hrs before measurement. The data are means from two independent experiments and the variations are below 20%.

Assay [5] addresses AKT2 (Homo sapiens, UniProt P31751). Put plainly: Z'-Lyte kinase panel, AKT2. Format: biochemical. Conditions: 1.5 hrs incubation. Here is the method:
as §2

Assay [6] addresses T2, EGFR (Homo sapiens, UniProt P00533).
T2 construct: purchased Invitrogen
The experiment in a line: Z'-Lyte kinase panel, EGFR. The format is biochemical. Conditions: 1.5 hrs incubation. Here is the method:
All EGFR (WT, L858R, L858R/T790M, etc.) recombinant human protein was purchased from Invitrogen. The kinase activity assay was performed and optimized according to the instructions of Z’‐LYTE™ kinase assay kits from the manufacturer (PV4879, Life, America). In our experiments, 10 concentration gradients from 0.01 nmol/L to 1.0 μmol/L were used for all the compounds.
as §2

Assay [7] concerns the target FLT3 (Homo sapiens, UniProt P36888). The experiment in a line: Z'-Lyte kinase panel, FLT3. The format is biochemical. Conditions: 1.5 hrs incubation. The procedure:
as §2

Assay [8] addresses TRKA (Homo sapiens, UniProt P04629). The experiment in a line: Z'-Lyte kinase panel, TRKA. Format: biochemical. The following applies: 1.5 hrs incubation. The procedure: as §2
Assay [9] has as its system H1975 cells. The experiment in a line: Cell cycle analysis by flow cytometry (propidium iodide). The format is cell-based, human. The procedure: The effect of YL143 to induce cell cycle arrest and apoptosis in H1975 cells was investigated by flow cytometry analysis. […] Treatment with 300 nmol/L of YL143 for 48 h led to 82.11% G0/G1 phase arrest and 34.1% apoptosis. […] (Fig. 3C).
Figure 3 YL143 induces G0/G1 cell cycle arrest and apoptosis in H1975 cells. (A) YL143 induces G0/G1 cell cycle arrest in H1975 cells H1975 cells were treated with 3, 30 or 300 nmol/L for 48 h before DNA labeling by propidium iodide and cell cycle analysis by flow cytometry. (B) YL143 induces apoptosis in H1975 cells. H1975 cells were treated with 3, 30 or 300 nmol/L for 48 h before DNA labeling by Annexin V and 7‐AAD and cell apoptosis analysis by flow cytometry. (C) The effect of YL143 on the expression of CDK4, Cyclin D2, CDK2, Cyclin E, Caspase‐9 and Caspase‐3 was tested by western blotting. The cells were treated with YL143 from 3 to 300 nmol/L for 48 h. Representative results are shown and similar results were obtained in three other independent trials. […]

Assay [10] deals with EGFR signal pathway in A431 cells. The experiment in a line: Western blot of EGFR signaling in A431 cells. Conditions: compared with H1975. The format is cell-based. Here is the method: Cells were treated with various concentrations of compound for designed time. Then, cells were lysed using 1 × SDS sample lysis buffer (CST recommended) with protease and phosphatase inhibitors. Cell lysates were loaded and electrophoresed onto 8–12% SDS‐PAGE gel, and then, separated proteins were transferred to a PVDF film. The film was blocked with 5% fat‐free milk in TBS solution containing 0.5% Tween‐20 for 4 h at room temperature and then incubated with corresponding primary antibody (1:1000–1:200) overnight at 4°C. After washing with TBST, HRP‐conjugated secondary antibody was incubated for 2 h. And the protein signals were visualized by ECL Western Blotting Detection Kit (Thermo Scientific, Waltham, MA) and detected with Amersham Imager 600 system (GE, America).
The selective EGFR ^L858R/T790M inhibition of YL143 was investigated in H1975, HCC827, A549, and A431 cancer cells harboring different statuses of EGFR by Western blotting analysis (Fig. 2A).
A general note: Immunoblotting shows a protein as a band on a membrane.

For assay [11], the target named is EGFR^L858R/T790M (Homo sapiens, UniProt P00533, L858R/T790M). Put plainly: FRET-based Z'-Lyte kinase assay, EGFR L858R/T790M. Format: biochemical. Also on record: purchased Invitrogen. Here is the method:
as §1

Chain of EGFR^L858R/T790M (P00533 25-1210 T790M/L858R): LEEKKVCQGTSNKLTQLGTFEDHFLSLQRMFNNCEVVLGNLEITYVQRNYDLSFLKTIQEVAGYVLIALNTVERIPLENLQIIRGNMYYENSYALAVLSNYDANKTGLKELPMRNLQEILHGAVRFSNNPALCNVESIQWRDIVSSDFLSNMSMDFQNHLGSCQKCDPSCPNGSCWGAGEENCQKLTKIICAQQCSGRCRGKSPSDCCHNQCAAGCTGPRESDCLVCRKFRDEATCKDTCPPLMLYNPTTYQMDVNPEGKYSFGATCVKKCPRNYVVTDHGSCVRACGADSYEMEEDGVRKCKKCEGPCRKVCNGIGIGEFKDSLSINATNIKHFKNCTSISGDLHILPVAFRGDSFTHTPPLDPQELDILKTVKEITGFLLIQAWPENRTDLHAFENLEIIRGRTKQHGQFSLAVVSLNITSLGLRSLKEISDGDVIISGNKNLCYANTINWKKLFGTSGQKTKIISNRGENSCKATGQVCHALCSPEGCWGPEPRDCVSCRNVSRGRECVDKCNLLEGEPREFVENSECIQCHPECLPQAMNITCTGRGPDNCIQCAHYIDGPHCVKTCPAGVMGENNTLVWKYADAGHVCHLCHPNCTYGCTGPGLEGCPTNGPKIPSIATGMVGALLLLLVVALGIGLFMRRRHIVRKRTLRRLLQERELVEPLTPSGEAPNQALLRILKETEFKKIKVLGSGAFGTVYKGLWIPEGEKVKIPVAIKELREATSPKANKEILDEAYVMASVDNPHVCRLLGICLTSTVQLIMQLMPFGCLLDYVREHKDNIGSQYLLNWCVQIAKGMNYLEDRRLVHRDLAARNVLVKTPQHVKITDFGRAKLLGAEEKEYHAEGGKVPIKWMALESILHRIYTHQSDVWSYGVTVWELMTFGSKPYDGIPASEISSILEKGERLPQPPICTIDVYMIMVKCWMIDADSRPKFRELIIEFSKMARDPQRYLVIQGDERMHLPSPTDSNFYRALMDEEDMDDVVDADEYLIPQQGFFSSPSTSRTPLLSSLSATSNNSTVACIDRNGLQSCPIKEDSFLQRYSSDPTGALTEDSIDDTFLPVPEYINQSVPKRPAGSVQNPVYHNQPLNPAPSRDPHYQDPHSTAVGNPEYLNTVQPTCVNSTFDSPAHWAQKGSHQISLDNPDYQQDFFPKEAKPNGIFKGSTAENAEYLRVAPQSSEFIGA
Chain of AKT1 (P31749 whole entry, species assumed): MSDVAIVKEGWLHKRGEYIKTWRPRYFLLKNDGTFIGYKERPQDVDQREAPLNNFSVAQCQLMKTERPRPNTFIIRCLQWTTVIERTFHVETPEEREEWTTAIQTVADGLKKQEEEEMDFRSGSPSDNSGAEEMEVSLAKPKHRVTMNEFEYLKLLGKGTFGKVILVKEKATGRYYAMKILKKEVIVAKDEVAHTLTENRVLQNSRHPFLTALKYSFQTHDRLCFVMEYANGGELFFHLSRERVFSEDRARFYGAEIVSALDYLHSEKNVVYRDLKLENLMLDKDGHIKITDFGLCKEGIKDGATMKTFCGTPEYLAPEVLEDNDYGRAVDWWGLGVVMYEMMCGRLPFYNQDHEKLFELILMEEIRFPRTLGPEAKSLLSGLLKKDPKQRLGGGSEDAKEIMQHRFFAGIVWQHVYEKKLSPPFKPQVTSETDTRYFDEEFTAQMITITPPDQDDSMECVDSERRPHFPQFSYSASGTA
Chain of TRKA (P04629 33-796, species assumed): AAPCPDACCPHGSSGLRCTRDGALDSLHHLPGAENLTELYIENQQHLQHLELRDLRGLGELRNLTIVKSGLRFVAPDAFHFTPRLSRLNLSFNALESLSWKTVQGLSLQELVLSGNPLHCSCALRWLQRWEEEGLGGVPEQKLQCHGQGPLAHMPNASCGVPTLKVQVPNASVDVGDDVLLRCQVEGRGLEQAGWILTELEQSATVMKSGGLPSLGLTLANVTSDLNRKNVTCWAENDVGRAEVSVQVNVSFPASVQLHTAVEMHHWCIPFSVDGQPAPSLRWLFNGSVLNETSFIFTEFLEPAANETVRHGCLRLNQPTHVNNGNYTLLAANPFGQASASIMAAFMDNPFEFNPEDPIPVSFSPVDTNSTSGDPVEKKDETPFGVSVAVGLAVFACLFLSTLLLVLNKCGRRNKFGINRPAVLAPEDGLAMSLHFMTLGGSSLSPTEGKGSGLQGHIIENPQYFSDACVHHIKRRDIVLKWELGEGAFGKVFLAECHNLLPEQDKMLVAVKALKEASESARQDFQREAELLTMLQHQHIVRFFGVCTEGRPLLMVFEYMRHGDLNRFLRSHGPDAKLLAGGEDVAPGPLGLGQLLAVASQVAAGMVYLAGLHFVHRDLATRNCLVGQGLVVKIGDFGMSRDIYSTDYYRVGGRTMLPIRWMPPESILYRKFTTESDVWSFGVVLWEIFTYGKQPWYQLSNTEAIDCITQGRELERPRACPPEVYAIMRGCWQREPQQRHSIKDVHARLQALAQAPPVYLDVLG
Chain of IR (P06213 28-1382): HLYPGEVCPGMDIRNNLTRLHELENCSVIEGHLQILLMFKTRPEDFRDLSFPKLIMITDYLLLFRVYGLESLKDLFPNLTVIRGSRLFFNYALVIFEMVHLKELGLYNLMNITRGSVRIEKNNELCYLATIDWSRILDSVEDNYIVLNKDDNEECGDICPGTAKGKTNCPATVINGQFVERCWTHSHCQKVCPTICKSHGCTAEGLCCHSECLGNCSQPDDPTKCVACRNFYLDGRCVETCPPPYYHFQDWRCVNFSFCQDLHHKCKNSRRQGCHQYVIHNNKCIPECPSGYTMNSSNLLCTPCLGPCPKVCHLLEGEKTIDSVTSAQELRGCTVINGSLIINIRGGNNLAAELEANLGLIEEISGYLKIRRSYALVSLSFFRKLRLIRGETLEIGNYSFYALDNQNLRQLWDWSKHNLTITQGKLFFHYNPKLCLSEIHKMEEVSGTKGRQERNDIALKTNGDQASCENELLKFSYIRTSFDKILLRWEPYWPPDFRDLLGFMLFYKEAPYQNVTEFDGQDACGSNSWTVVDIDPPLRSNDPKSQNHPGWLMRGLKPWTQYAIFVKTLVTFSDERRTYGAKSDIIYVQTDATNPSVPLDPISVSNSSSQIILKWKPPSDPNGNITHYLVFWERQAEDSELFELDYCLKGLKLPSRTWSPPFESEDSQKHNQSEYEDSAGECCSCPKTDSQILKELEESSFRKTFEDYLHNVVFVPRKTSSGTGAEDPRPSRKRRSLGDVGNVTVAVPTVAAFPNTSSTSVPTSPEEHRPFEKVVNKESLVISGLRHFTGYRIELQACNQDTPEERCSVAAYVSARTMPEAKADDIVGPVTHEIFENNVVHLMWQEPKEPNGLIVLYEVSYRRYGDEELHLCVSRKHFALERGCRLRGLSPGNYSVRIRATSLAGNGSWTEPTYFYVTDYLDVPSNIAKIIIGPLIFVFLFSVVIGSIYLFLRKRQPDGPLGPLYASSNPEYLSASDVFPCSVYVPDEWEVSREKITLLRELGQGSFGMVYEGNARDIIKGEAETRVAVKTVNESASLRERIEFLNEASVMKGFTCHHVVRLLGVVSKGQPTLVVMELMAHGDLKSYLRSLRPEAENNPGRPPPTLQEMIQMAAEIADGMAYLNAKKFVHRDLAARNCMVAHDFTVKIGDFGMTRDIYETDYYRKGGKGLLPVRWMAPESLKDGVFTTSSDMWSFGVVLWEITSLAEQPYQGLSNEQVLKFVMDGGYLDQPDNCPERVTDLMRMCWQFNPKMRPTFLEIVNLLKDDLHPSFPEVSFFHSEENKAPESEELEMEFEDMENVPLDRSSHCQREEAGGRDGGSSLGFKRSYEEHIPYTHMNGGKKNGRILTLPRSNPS
Chain of AKT2 (P31751 whole entry, species assumed): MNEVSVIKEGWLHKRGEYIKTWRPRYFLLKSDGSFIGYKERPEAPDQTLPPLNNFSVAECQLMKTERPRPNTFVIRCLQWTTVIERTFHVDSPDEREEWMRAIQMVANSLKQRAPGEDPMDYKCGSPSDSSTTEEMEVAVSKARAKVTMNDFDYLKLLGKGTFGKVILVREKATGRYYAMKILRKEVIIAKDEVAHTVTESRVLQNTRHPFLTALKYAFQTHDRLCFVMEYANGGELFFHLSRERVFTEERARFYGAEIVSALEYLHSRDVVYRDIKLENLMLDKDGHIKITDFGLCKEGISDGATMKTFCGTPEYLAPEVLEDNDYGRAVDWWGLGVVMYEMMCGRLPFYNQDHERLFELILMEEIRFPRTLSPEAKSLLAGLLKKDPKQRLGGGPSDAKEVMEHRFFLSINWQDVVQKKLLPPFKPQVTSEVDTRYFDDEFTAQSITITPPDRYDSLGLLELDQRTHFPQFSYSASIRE
T2 sequence (P00533 669-1210 limits assumed): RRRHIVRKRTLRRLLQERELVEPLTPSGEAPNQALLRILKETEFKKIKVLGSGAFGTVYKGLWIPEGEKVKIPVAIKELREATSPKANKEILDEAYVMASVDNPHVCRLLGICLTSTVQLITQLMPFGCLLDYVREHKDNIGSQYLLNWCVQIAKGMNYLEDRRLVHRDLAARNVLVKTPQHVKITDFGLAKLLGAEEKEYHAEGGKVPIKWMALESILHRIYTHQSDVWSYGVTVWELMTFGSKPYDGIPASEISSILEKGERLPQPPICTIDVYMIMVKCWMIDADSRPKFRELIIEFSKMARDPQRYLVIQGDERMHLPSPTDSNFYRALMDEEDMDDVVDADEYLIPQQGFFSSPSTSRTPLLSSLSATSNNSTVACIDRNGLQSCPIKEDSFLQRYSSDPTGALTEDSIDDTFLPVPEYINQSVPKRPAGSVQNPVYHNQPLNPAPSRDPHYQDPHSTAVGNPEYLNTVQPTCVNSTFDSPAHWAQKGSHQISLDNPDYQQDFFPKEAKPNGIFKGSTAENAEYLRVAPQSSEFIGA

One may read the IC50 as the concentration at which inhibition is half-maximal. In the case of `C=CC(=O)Nc1cc(C)cc(-n2c(=O)cc(C)c3cnc(Nc4ccc(N5CCN(C)CC5)cc4OC)nc32)c1` [YL143, N‐(3‐(2‐((2‐Methoxy‐4‐(4‐methylpiperazin‐1‐yl)phenyl)amino)‐5‐methyl‐7‐oxopyrido [2,3‐d]pyrimidin‐8(7H)‐yl)‐5‐methylphenyl)acrylamide], the 50% inhibitory concentration (IC50) in assay [1] is 185 ± 43.4 nM; in assay [2] it was 7.5 ± 0.1 nM; in [3], 45.2 ± 27.3 nM; in assay [4], over 10000 nM; in assay [5], over 10000 nM; in assay [6], 35.3 nM. Besides, the IC50 in assay [7] was over 10000 nM; in assay [8] it was over 10000 nM; in assay [11] (AV ± SD, 1.5 h incubation), 2 ± 0.3 nM. The same compound gave a G0/G1 phase fraction in assay [9] (300 nmol/L, 48 h) of 82.11%. The “cell cycle arrest and apoptosis” value in assay [9] (H1975 cells, 30 nmol/L) was “induces G0/G1 phase arrest and apoptosis”. For the same compound, the “effect on EGFR signal pathway” value in assay [10] is recorded as “obviously less potent”. Also, in assay [11] (parallel comparison), the “potency factor over CO1686 and osimertinib on EGFR^L858R/T790M” value is listed as 5–7.
